According to ChEMBL document CHEMBL1649570, “Pharmacokinetics and ex vivo pharmacodynamic antimalarial activity of dihydroartemisinin-piperaquine in patients with uncomplicated falciparum malaria in Vietnam” (Antimicrob Agents Chemother, 2009):
≈ marks a conversion by molar mass, not a printed value. Calls of active or inactive are those of the source. The rule behind the calls is not given here.

Legend:
[1] = Half life in Plasmodium falciparum-infected patient at 40 mg/kg, po; type: ADME, organism-based; parameters: dose 40 mg/kg, route oral; details: human, in vivo
[2] = Tmax in Plasmodium falciparum-infected patient at 40 mg/kg, po; type: ADME, organism-based; parameters: dose 40 mg/kg, route oral; details: human, in vivo
[3] = tested on: Plasmodium falciparum; experiment: Antiplasmodial activity against Plasmodium falciparum K1 isolated from po dosed patient with malaria; type: functional
[4] = tested on: Plasmodium falciparum; experiment: Antiplasmodial activity against Plasmodium falciparum D6 isolated from po dosed patient with malaria; type: functional
[5] = tested on: Plasmodium falciparum; experiment: Antiplasmodial activity against Plasmodium falciparum K1 assessed as inhibition of [3H]hypoxanthine incorporation by beta counting; type: functional, organism-based
[6] = Cmax in Plasmodium falciparum-infected patient at 40 mg/kg, po; type: ADME, organism-based; parameters: dose 40 mg/kg, route oral; details: human, in vivo
[7] = AUC in Plasmodium falciparum-infected patient at 40 mg/kg, po; type: ADME, organism-based; parameters: dose 40 mg/kg, route oral; details: human, plasma
[8] = tested on: Homo sapiens; experiment: AUC (0 to infinity) in Plasmodium falciparum-infected patient at 40 mg/kg, po; type: ADME, organism-based, Plasma; parameters: time infinity, dose 40 mg/kg, route oral; details: in vivo
[9] = tested on: Homo sapiens; experiment: Apparent oral clearance in Plasmodium falciparum-infected patient at 40 mg/kg, po; type: ADME, organism-based; parameters: dose 40 mg/kg, route oral; details: in vivo
[10] = tested on: Plasmodium falciparum; experiment: Antiplasmodial activity against Plasmodium falciparum D6; type: functional
[11] = tested on: Plasmodium falciparum; experiment: Antiplasmodial activity against Plasmodium falciparum K1; type: functional
[12] = tested on: Plasmodium falciparum; experiment: Antiplasmodial activity against Plasmodium falciparum D6 isolated from po dosed patient with malaria after 7 days; type: functional, organism-based
[13] = Half life in Plasmodium falciparum-infected patient at 320 mg/kg, po; type: ADME, organism-based; parameters: dose 320 mg/kg, route oral; details: human, in vivo
[14] = tested on: Plasmodium falciparum; experiment: Antiplasmodial activity against Plasmodium falciparum K1 isolated from patient with malaria at 25 ng/ml after 28 days; type: functional, organism-based
[15] = Plasma concentration in Plasmodium falciparum-infected patient at 320 mg/kg, po after 28 days; type: ADME, organism-based; parameters: dose 320 mg/kg, route oral; details: human
[16] = Cmax in Plasmodium falciparum-infected patient at 320 mg/kg, po; type: ADME, organism-based; parameters: dose 320 mg/kg, route oral; details: human, in vivo
[17] = AUC in Plasmodium falciparum-infected patient at 320 mg/kg, po; type: ADME, organism-based; parameters: dose 320 mg/kg, route oral; details: human, plasma
[18] = tested on: Plasmodium falciparum; experiment: Antiplasmodial activity against Plasmodium falciparum D6 isolated from patient with malaria at 25 ng/ml after 28 days; type: functional, organism-based
[19] = tested on: Plasmodium falciparum; experiment: Antiplasmodial activity against Plasmodium falciparum K1 isolated from po dosed patient with malaria after 7 days; type: functional, organism-based
[20] = AUC (0 to infinity) in Plasmodium falciparum-infected patient at 320 mg/kg, po; type: ADME, organism-based; parameters: time infinity, dose 320 mg/kg, route oral; details: human, plasma
[21] = Tmax in Plasmodium falciparum-infected patient at 320 mg/kg, po; type: ADME, organism-based; parameters: dose 320 mg/kg, route oral; details: human, in vivo

**Q.** With `C[C@H]1[C@@H](O)O[C@@H]2O[C@@]3(C)CC[C@H]4[C@H](C)CC[C@@H]1[C@@]24OO3` [ARTENIMOL] as the molecule, how does the half-life [1] read?
**A.** 0.85 h

**Q.** What about the Tmax [2] of the same molecule?
**A.** 2.8 h

**Q.** And the ID90 [3]?
**A.** 0.513 µg/mL (≈ 1.8 µM)

**Q.** What about the ID90 [4] of the same molecule?
**A.** 0.639 µg/mL (≈ 2.25 µM)

**Q.** What about the IC50 [5] of the same molecule?
**A.** 2.57 nM

**Q.** And the Cmax [6]?
**A.** 698 ng/mL

**Q.** What about the AUC [7] of the same molecule?
**A.** 1950 ng·h/mL

**Q.** What about the AUC [8] of the same molecule?
**A.** 1949 ng·h/mL

**Q.** And the CL/F [9]?
**A.** 19.8 mL/min/kg

**Q.** What about the IC90 [10] of the same molecule?
**A.** 4.5 nM

**Q.** What about the IC90 [11] of the same molecule?
**A.** 4.85 nM

**Q.** What does the source list for `Clc1ccc2c(N3CCN(CCCN4CCN(c5ccnc6cc(Cl)ccc56)CC4)CC3)ccnc2c1` [PIPERAQUINE]?
**A.** Cp [12]: 25 ng/mL; half-life [13]: 427 h; Activity [14]: inactive; concentration at 672 h [15]: 25 ng/mL; Cmax [16]: 568 ng/mL; IC50 [5]: 82.1 nM; AUC [17]: 44400 ng·h/mL; Activity [18]: inactive; Cp [19]: 25 ng/mL; AUC(0-inf) [20]: 56400 ng·h/mL; Tmax [21]: 5.7 h; IC90 [10]: 67.5 nM; IC90 [11]: 122 nM
